For 4 molecules, EC50, Activity and IC50 results are on record in ChEMBL document CHEMBL1152463 (Antimicrob Agents Chemother, 2008).

SMILES strings stand for the structures. ≈ marks a conversion by molar mass, not a printed value. Calls of active or inactive are those of the source. The calls are words filed in the database; no cut-off is given here.

In data set [1] the test system is Leishmania donovani. The experiment in a line: Antileishmanial activity against Leishmania donovani MHOH/IN/1983/AD83 promastigotes assessed as viability after 2 hrs by MTT assay. To be noted: MHOH/IN/1983/AD83, 2 h. The class given is functional, organism-based. In general terms: Tetrazolium assays rely on reduction of a dye to a coloured formazan, in cell work by metabolically active cells.

The subject of data set [2] is Leishmania donovani. The experiment in a line: Antileishmanial activity against Leishmania donovani MHOH/IN/1983/AD83 promastigotes assessed as cell killing at 30 ug/mL after 2 hrs by MTT assay relative to control. Format: functional.
Data set [3] deals with Leishmania donovani. Kind of data set: Antileishmanial activity against Leishmania donovani MHOH/IN/1983/AD83 promastigotes assessed as growth inhibition after 3 days by MTT assay. Format: functional, organism-based. To be noted: MHOH/IN/1983/AD83, 72 h.
The test system of data set [4] is Leishmania donovani. The experiment in a line: Antileishmanial activity against Leishmania donovani MHOH/IN/1983/AD83 amastigotes infected in BALB/c mouse peritoneal macrophage assessed as cell killing at 15 ug/mL treated 6 hrs after infection measured after 48 hrs using Giemsa staining relative to control. Format: functional.
In data set [5] the test system is Leishmania donovani. The experiment in a line: Antileishmanial activity against Leishmania donovani MHOH/IN/1983/AD83 amastigotes infected in BALB/c mouse peritoneal macrophage at 3 ug/mL treated 6 hrs after infection measured after 48 hrs using Giemsa staining relative to control. The class given is functional.
For data set [6], the system named is Leishmania donovani. The experiment in a line: Antileishmanial activity against Leishmania donovani MHOH/IN/1983/AD83 amastigotes infected in BALB/c mouse peritoneal macrophage treated 6 hrs after infection measured after 48 hrs using Giemsa staining relative to control. Format: functional, organism-based.
Data set [7] can be described thus: Toxicity in BALB/c mouse peritoneal macrophage assessed as toxic dose. Format: cell-based. To be noted: peritoneal macrophage cell.
The test system of data set [8] is Leishmania donovani. Kind of data set: Antileishmanial activity against Leishmania donovani MHOH/IN/1983/AD83 promastigotes assessed as increase in caspase 3 like activation in parasite cytosol at 3 to 30 ug/mL after 2 hrs by spectrofluorimetric analysis. The class given is functional, organism-based.
For data set [9], the system named is Leishmania donovani. The experiment in a line: Antileishmanial activity against Leishmania donovani MHOH/IN/1983/AD83 promastigotes assessed as inhibition of calcium uptake. The class given is functional, organism-based.
The test system of data set [10] is Mus musculus. Kind of data set: Toxicity in BALB/c mouse at 10 mg/kg, po. The class given is organism-based. The arrangement: dose 10 mg/kg, route oral. To be noted: in vivo.
Data set [11] deals with Mus musculus. The experiment in a line: Toxicity in BALB/c mouse assessed as liver function at 10 mg/kg, po. Further details: dose 10 mg/kg, route oral. The class given is organism-based. To be noted: in vivo.
Data set [12] has as its system Mus musculus. Kind of data set: Toxicity in BALB/c mouse assessed as kidney function at 10 mg/kg, po. The class given is organism-based. The arrangement: dose 10 mg/kg, route oral. To be noted: in vivo.
Data set [13] relates to Mus musculus. Kind of data set: Toxicity in BALB/c mouse assessed as heart function at 10 mg/kg, po. The class given is organism-based. The arrangement: dose 10 mg/kg, route oral. To be noted: in vivo.
Data set [14] relates to Leishmania donovani. The experiment in a line: Antileishmanial activity against Leishmania donovani MHOH/IN/1983/AD83 promastigotes assessed as decrease in rate of oxygen consumption at 30 ug/mL after 2 hrs by polarographically with Clark electrode. Format: functional. Further details: scale not given: the % may be the effect or the level left.

Usually EC50 stands for the concentration at which the effect is half-maximal. The term IC50 denotes the concentration at which inhibition is half-maximal. Take `CCOC(=O)C1=C(C)NC(C)=C(C(=O)OCC)C1c1ccccc1/C=C/C(=O)OC(C)(C)C` [LACIDIPINE]: the EC50 in data set [1] is 2.5 µg/mL (≈ 5.49 µM). For the same molecule, the Activity was 90.5% in [2]; 85.66% in data set [4]; above 50% in data set [5]; “Dose-dependent effect” in data set [6]; 150 µg/mL in data set [7]; “Non-toxic” in [10]. Moreover, the Activity entry is “Non-toxic” in data set [11], “Non-toxic” in data set [12], “Non-toxic” in data set [13] and 78% in data set [14]. Further, the values for the IC50 in data set [3] and in data set [6] were 1.45 µg/mL (≈ 3.18 µM) and 2.8 µg/mL (≈ 6.15 µM), respectively. For the same molecule, the result in data set [8] and in data set [9] was Active.

With `CCOC(=O)C1=C(COCCN)NC(C)=C(C(=O)OC)C1c1ccccc1Cl` (stereo unspecified) [AMLODIPINE], the EC50 in data set [1] was determined as 2 µg/mL (≈ 4.89 µM). Further, the Activity in [2] was 98.76%; in data set [4] it was 96.39%; in data set [5] it was above 50%; in [6] it was “Dose-dependent effect”; in data set [7], above 100 µg/mL; in [10], “Non-toxic”. In addition, the Activity result in data set [11], in data set [12] and in [13] was “Non-toxic” each time. In addition, the IC50 worked out at 0.085 µg/mL (≈ 0.208 µM) in [3] and 2.1 µg/mL (≈ 5.14 µM) in data set [6]. The result in data set [8] and in data set [9] was Active.

As to `COc1ccc([C@@H]2Sc3ccccc3N(CCN(C)C)C(=O)[C@@H]2OC(C)=O)cc1`, the outcome in [9] was Active.

As to `COc1ccc(CCN(C)CCCC(C#N)(c2ccc(OC)c(OC)c2)C(C)C)cc1OC` (stereo unspecified), the result in [9] was Active.
